# Assay results from ChEMBL document CHEMBL3608214, “Optimization of Novel Antagonists to the Neurokinin-3 Receptor for the Treatment of Sex-Hormone Disorders (Part II)” (ACS Med Chem Lett, 2015).
# What was measured:
# [1] = Distribution coefficient, log D of the compound at pH 7.4; assay type: physicochemical; conditions: octanol/water
# Neuromedin-K receptor [2] = target: T1, Neuromedin-K receptor (Homo sapiens, UniProt P29371)
# T1 sequence (P29371 whole entry): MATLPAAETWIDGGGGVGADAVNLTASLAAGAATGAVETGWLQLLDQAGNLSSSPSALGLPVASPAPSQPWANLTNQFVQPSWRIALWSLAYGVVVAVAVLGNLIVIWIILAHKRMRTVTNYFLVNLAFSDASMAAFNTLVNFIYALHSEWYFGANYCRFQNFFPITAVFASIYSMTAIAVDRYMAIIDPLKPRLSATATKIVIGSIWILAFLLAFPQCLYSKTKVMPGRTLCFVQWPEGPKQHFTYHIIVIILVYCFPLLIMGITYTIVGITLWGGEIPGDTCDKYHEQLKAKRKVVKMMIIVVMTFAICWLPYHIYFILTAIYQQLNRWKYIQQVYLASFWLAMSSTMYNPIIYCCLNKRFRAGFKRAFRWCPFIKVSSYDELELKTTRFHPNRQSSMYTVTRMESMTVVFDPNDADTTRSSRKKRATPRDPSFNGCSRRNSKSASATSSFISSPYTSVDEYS
# Neuromedin-K receptor [3] = target: T1, Neuromedin-K receptor; remark: listed apart in the source
# [4] = Half life in rat at 1 mg/kg, iv; conditions: in vivo
# Neuromedin-K receptor [5] = target: T2, Neuromedin-K receptor (Rattus norvegicus, UniProt P16177); assay: Binding affinity to rat NK3R
# T2 sequence (P16177 whole entry): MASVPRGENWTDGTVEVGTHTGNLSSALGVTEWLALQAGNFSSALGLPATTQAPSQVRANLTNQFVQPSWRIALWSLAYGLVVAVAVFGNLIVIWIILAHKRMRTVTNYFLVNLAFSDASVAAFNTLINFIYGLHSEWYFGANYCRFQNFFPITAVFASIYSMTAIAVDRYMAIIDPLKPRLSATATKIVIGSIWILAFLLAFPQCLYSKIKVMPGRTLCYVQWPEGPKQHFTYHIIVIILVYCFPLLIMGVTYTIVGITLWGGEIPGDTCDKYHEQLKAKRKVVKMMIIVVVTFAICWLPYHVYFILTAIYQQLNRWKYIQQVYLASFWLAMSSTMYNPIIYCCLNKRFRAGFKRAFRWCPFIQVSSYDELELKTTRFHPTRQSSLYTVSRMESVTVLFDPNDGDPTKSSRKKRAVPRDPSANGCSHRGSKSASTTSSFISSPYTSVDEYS
# [6] = Volume of distribution at steady state in rat at 1 mg/kg, iv; conditions: in vivo
# Rattus norvegicus = assay: Inhibition of luteinizing hormone release in orally dosed rat; conditions: po, read-out: MED
# [7] = target: Voltage-gated inwardly rectifying potassium channel KCNH2 (Homo sapiens, UniProt Q12809)
# Chain of Voltage-gated inwardly rectifying potassium channel KCNH2 (Q12809 whole entry): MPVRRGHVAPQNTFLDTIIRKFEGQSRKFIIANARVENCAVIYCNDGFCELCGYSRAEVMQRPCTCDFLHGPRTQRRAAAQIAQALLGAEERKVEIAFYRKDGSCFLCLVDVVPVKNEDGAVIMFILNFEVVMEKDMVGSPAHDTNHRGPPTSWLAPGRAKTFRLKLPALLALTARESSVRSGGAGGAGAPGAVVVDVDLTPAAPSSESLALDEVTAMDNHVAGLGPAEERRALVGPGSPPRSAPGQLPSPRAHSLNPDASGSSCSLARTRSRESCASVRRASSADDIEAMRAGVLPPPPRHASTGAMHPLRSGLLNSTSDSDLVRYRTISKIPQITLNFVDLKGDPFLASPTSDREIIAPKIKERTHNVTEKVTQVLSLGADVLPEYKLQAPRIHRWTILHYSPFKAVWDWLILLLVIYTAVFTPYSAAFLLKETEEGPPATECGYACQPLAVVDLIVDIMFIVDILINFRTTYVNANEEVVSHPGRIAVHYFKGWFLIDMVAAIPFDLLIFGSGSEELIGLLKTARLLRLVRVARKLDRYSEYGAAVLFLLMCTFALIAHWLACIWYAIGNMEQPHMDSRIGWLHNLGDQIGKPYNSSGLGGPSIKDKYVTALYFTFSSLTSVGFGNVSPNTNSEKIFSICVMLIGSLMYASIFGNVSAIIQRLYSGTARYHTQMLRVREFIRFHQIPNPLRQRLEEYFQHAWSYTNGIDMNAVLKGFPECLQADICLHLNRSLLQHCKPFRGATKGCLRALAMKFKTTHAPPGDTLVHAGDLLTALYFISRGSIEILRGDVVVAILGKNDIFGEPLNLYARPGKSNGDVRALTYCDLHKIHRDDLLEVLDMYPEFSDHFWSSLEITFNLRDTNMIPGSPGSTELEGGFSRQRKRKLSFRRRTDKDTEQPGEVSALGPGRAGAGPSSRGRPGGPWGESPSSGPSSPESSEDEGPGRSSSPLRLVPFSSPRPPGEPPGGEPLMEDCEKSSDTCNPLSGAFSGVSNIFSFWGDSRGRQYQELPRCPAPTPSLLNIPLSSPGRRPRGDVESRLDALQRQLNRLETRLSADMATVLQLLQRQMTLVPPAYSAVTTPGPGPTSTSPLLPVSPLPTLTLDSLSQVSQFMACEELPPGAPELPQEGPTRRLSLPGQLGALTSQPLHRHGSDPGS
# [8] = Volume of distribution at steady state in monkey at 10 mg/kg, iv; conditions: rhesus monkey, in vivo
# [9] = Unbound fraction in rat brain at 1 mg/kg after 60 mins
# [10] = Binding affinity to monkey NK3R
# Cynomolgus monkey = assay: Inhibition of luteinizing hormone release in orally dosed castrated cynomolgus monkey; conditions: Macaca fascicularis, po, read-out: MED
# [11] = Ratio of unbound drug concentration in brain to plasma of rat at 1 mg/kg after 60 mins
# [12] = Unbound fraction in monkey plasma at 5 mg/kg, po after 90 mins; conditions: rhesus monkey
# Cytochrome P450 1A2 = target: T3, Cytochrome P450 1A2 (Homo sapiens, UniProt P05177)
# T3 sequence (P05177 whole entry): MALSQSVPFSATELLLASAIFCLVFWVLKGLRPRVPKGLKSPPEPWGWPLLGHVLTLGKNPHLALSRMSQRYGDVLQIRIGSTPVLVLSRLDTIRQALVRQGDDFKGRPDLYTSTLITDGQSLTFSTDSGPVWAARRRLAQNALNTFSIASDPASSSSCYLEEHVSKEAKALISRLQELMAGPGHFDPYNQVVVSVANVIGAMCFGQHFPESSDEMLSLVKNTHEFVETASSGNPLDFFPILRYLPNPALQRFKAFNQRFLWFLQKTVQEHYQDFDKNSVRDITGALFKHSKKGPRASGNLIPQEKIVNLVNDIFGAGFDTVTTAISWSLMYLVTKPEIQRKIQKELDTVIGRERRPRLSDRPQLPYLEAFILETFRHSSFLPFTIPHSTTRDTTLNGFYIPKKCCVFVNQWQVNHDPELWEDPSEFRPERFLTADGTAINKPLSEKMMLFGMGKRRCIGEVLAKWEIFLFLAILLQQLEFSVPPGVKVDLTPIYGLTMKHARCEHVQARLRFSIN
# Description: Inhibition of CYP1A2 (unknown origin)
# Cytochrome P450 3A4 = Cytochrome P450 3A4 (Homo sapiens, UniProt P08684)
# Chain of Cytochrome P450 3A4 (P08684 whole entry): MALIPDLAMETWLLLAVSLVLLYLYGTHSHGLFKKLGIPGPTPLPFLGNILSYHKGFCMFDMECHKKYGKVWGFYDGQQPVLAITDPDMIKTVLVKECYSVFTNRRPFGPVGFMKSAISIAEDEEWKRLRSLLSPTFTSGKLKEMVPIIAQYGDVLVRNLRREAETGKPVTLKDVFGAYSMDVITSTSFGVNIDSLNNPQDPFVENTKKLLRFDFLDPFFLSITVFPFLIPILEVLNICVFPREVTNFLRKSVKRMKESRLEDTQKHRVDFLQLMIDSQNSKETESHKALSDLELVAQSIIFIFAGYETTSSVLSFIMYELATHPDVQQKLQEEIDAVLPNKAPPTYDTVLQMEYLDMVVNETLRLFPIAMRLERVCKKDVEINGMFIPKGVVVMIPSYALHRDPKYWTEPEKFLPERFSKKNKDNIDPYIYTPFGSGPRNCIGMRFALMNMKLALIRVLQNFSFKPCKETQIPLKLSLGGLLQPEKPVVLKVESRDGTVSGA
# Description: Inhibition of CYP3A4 (unknown origin)
# Cytochrome P450 2C19 = Cytochrome P450 2C19 (Homo sapiens, UniProt P33261)
# Chain of Cytochrome P450 2C19 (P33261 whole entry): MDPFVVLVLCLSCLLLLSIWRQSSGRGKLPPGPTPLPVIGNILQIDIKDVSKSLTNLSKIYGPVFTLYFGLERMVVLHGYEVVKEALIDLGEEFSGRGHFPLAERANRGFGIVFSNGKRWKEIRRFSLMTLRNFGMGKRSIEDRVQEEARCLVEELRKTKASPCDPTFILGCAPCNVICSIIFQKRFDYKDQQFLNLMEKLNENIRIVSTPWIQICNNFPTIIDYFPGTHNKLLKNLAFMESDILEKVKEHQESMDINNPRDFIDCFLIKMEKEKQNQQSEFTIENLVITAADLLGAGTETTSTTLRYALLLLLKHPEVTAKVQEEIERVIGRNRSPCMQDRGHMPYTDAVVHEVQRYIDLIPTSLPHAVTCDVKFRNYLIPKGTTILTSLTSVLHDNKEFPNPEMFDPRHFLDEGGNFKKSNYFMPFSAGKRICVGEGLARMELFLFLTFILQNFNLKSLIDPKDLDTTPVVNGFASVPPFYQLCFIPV
# Description: Inhibition of CYP2C19 (unknown origin)
# Cytochrome P450 2C9 = Cytochrome P450 2C9 (Homo sapiens, UniProt P11712)
# Chain of Cytochrome P450 2C9 (P11712 whole entry): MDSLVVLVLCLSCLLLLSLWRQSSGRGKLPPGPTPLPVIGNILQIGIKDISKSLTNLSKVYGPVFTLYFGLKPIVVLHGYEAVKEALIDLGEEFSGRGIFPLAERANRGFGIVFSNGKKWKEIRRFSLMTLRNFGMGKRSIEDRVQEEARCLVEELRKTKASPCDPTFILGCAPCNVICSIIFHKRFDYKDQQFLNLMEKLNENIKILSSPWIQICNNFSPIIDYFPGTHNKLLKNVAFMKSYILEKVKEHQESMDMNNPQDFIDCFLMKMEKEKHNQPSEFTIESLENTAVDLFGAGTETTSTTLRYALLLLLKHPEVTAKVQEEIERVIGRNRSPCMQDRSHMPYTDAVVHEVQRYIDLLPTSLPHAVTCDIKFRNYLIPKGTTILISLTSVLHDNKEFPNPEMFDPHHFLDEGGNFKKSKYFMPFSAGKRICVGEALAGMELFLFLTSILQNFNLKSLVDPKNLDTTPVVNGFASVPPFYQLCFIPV
# Description: Inhibition of CYP2C9 (unknown origin)
# Cytochrome P450 2D6 = Cytochrome P450 2D6 (Homo sapiens, UniProt P10635)
# Chain of Cytochrome P450 2D6 (P10635 whole entry): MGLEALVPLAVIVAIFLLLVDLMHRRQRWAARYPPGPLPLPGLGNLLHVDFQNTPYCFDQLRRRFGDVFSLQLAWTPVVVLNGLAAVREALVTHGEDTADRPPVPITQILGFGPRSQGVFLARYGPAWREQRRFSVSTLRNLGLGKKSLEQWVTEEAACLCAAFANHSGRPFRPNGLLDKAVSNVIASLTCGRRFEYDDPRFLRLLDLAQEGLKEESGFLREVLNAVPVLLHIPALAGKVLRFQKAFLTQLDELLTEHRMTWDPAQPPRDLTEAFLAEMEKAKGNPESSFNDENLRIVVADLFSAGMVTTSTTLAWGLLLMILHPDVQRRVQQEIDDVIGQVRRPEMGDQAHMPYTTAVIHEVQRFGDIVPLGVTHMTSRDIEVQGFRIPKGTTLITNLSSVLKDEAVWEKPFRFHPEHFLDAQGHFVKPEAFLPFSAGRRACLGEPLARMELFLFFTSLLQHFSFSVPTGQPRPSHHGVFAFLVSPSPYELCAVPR
# Description: Inhibition of CYP2D6 (unknown origin)
Compound,logD [1],Ki (Neuromedin-K receptor [2]),IC50 (Neuromedin-K receptor [3]),Ki (Neuromedin-K receptor [5]),minimal effective dose (Rattus norvegicus),other results
Cc1nnc(-c2nnc3n2CCN(C(=O)c2ccc(F)cc2)[C@@H]3C)s1,0.8,,,,,
C[C@@H]1c2nnc(-c3csc(-c4ccc(F)cc4F)n3)n2CCN1C(=O)c1ccc(-c2cccs2)cc1,5,,,,,
Cc1nsc(-c2nnc3n2CCN(C(=O)c2ccc(F)cc2)[C@@H]3C)n1 [FEZOLINETANT],,25.1 nM,20 nM,219 nM,,half-life [4]: 4.65 h; Vd [6]: 0.6 L/kg
Cc1nsc(-c2nnc3n2CCN(C(=O)c2ccc(F)cc2)[C@@H]3CCO)n1,,31.6 nM,79.4 nM,244 nM,,
Cc1nsc(-c2nnc3n2CCN(C(=O)c2ccccc2)[C@@H]3C)n1,,50.1 nM,63.1 nM,573 nM,30 mg/kg,
C[C@@H]1c2nnc(-c3ncns3)n2CCN1C(=O)c1ccc(F)cc1,1.1,,,,,
Cc1nc(-c2nnc3n2CCN(C(=O)c2ccc(-c4cccs4)cc2)[C@@H]3C)cs1,,,,,60 mg/kg,IC50 [7]: 24000 nM; Vd [8]: 1.52 L/kg; fraction unbound at 1 h [9]: 0.028; Ki [10]: 20 nM; minimal effective dose (Cynomolgus monkey): 20 mg/kg; logD ([1]; read-out: logD): 3.1; Kp uu at 1 h [11]: 0.14; fraction unbound at […] [12]: 0.043
Cc1nsc(-c2nnc3n2CCN(C(=O)c2ccc(Cl)cc2)[C@@H]3C)n1,,20 nM,31.6 nM,,,
CC(C)c1noc(-c2nnc3n2CCN(C(=O)c2ccc(F)cc2)[C@@H]3C)n1,1.7,25.1 nM,39.8 nM,,,
Cc1nsc(-c2nnc3n2CCN(C(=O)c2ccc(F)cc2)C3)n1,,100 nM,158 nM,2030 nM,30 mg/kg,
Cc1noc(-c2nnc3n2CCN(C(=O)c2ccc(F)cc2)[C@@H]3C)n1,0.7,126 nM,,,,IC50 (Cytochrome P450 1A2): 86000 nM; IC50 (Cytochrome P450 3A4): > 100000 nM; IC50 (Cytochrome P450 2C19): 34000 nM; IC50 (Cytochrome P450 2C9): 42000 nM; IC50 (Cytochrome P450 2D6): > 100000 nM
C[C@@H]1c2nnc(-c3nc(C(F)(F)F)ns3)n2CCN1C(=O)c1ccc(F)cc1,,,,85 nM,10 mg/kg,
Cc1nsc(-c2nnc3n2CCN(C(=O)c2ccc(F)cc2)C3(C)C)n1,2,,,,,IC50 (Cytochrome P450 1A2): 51000 nM; IC50 (Cytochrome P450 3A4): > 100000 nM; IC50 (Cytochrome P450 2C19): 4000 nM; IC50 (Cytochrome P450 2C9): 12000 nM; IC50 (Cytochrome P450 2D6): > 100000 nM
